# Measurements: publication PMC11544713, “The Application of Untargeted Metabolomic Approaches for the Search of Common Bioavailable Metabolites in Human Plasma Samples from Lippia citriodora and Olea europaea Extracts” (Journal of Agricultural and Food Chemistry, 2024)
# Counter-ions that a name gives are not always drawn.
# Columns and labels:
# [1] = Acute intervention: nutrikinetics of plasma metabolites after ingestion of L. citriodora extract (untargeted HPLC-ESI-QTOF-MS); conditions: in vivo
# In short: (§1)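 Fasted healthy volunteers (n = 8 per extract, placebo n = 9, double-blind) took one 500 mg capsule. Plasma was drawn at 0–10 h, protein-precipitated with methanol:ethanol and analysed by C18 HPLC-ESI-QTOF-MS in negative full scan (m/z 50–1700). Tmax was observed; Cmax and AUC are relative, from deconvoluted peak areas.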
# [2] = Acute intervention: nutrikinetics of plasma metabolites after ingestion of O. europaea extract (untargeted HPLC-ESI-QTOF-MS); conditions: in vivo
# In short: as §1
smiles,measurement,setting,value
"COc1cc(CC(=O)O)ccc1OS(=O)(=O)O [homovanillic acid sulfate isomer 1, homovanillic acid sulfate]",AUC: area under the zero-moment curve,"[1]; human, po, 500 mg",1391 ± 1144 relative chromatographic area/h
same,Cmax: relative maximum plasma level,"[1]; human, po, 500 mg",341 ± 164 relative chromatographic area
same,"mean chromatographic area in plasma, T0.5",[1],0
same,"mean chromatographic area in plasma, T1",[1],0
same,"mean chromatographic area in plasma, T2",[1],19
same,"mean chromatographic area in plasma, T4",[1],147
same,"mean chromatographic area in plasma, T6",[1],209
same,"mean chromatographic area in plasma, T8",[1],221
same,"mean chromatographic area in plasma, T10",[1],207
same,Cmax: relative maximum plasma level,"[2]; human, po, 500 mg",233 ± 69 relative chromatographic area
same,"mean chromatographic area in plasma, T0.5",[2],65
same,"mean chromatographic area in plasma, T1",[2],212
same,"mean chromatographic area in plasma, T2",[2],192
same,"mean chromatographic area in plasma, T4",[2],165
same,"mean chromatographic area in plasma, T6",[2],119
same,"mean chromatographic area in plasma, T8",[2],108
same,"mean chromatographic area in plasma, T10",[2],75
